Consider three molecules from patent US20250057963A1, “DISCOVERY OF PIPERLONGUMINE AS A NOVEL E3 LIGASE LIGAND” (University of Florida Research Foundation, Incorporated, priority 2021, published 2025).

SMILES strings stand for the structures. “Also recorded” adds a separate entry of the source.

Series [1] concerns the target T1, CDK9: 955: KEAP1 ternary complex (Homo sapiens, UniProt P50750+Q14145).
T1 construct: expressed in transfected cells; host or cells: 293T
Briefly: NanoBRET ternary complex formation assay in live 293T cells. It counts as cell-based. As to conditions: HiBit-CDK9 and Halo-KEAP1 in 293T cells, 6 h. The text has this:
CMV HiBit (Cat. No. CS1956B03) was purchased from Promega. Plasmid HaloTag-KEAP1 (a gift from Yimon Aye, plasmid #58240) was purchased from Addgene. HiBit-CDK9 were constructed through the Gibson assembly method. The primer pair (5′-[…]atggcaaagcagtacgactcggtggag-3′ and 5′-[…]gaagacgcgctcaaactccgtctggt-3′) and the template HA-CDK9 (a gift from Andrew Rice, plasmid #28102) was used to clone the CDK9 fragment. The primer pair (5′-accagacggagtttgagcgcgtcttc[…]-3′ and 5′-ctccaccgagtcgtactgcttcgccat[…]-3′) and pBit3.1—N(Cat. No. N2361, Promega) were used to clone the vector-containing fragment. The PCR fragments were assembled using NEBuilder® HiFi DNAAssembly Master Mix. DNA sequences in all these plasmids were authenticated by automatic sequencing. […] After treatment, NanoBRET Nano-Glo Substrate (Cat. No. N1662, Promega) was added into the medium, and the contents were mixed by shaking the plate for 30 s before measuring donor and acceptor signals on Biotek plate reader. Dual-filtered luminescence was collected with a 450/50 nm bandpass filter (donor, NanoBiT-CDK9 protein) and a 610-nm longpass filter (acceptor, HaloTag NanoBRET ligand) using an integration time of 0.5 s. mBRET ratios were calculated following the NanoBRET™ Nano-Glo® Detection System (Cat. No. N1662, Promega).

Another series addresses CDK9 (Homo sapiens, UniProt P50750). Briefly: CDK9 degradation in MOLT4 cells (immunoblot). Type of series: cell-based. Also noted: endogenous in cells; host or cells: MOLT4, 293T, K562, NCI-H1299, LNCaP. The following applies: immunoblot. As for the experimental part:
All the cell lines were maintained in a humidified incubator at 37° C. and 5% CO2.
Data analysis was performed using GraphPad Prism software (version 9) unless indicated otherwise. All graphs presented represent the mean±standard deviation of the mean (SD) unless otherwise stated.

Series [2] deals with LNCaP prostate cancer cells and H1299 lung cancer cells. Briefly: Cell killing (MTS) with or without KEAP1 siRNA knockdown. Type of series: cell-based, Human. As to conditions: KEAP1 siRNA vs control siRNA 48 h; compound 0.1 mM (LNCaP) or 0.3 mM (H1299) for 24 h. The procedure:
FIGS. 19A to 19B show percentages of cell killing in LNCaP (FIG. 19A) and H1299 (FIG. 19B) cells with or without KEAP1 knockdown. LNCaP and H1299 cells were treated with control siRNA or siRNAs targeting KEAP1 for 48 h and then reseeded and treated with indicated compound (0.1 mM for LNCaP cells and 0.3 mM for H1299 cells) for 24 h. The cell viability was then determined by MTS assay. The data are presented as mean±SD from three replicate cell cultures in a representative experiment. Data are representative of two independent experiments. Statistical significance was calculated with unpaired two-tailed Student's t-tests. **P<0.01; ***P<0.001; NS: not significant.
Viability (MTS) assays in various cancer cells followed the methods described in our previous report (Khan et al., 2019). The data were expressed as average % cell viability and fitted in non-linear regression curves using GraphPad Prism 9 (GraphPad Software, La Jolla, CA, USA).

The target in another series is T2, EML4-ALK (Homo sapiens, UniProt Q9UM73).
T2 construct: endogenous in cells; host or cells: NCI-H2228; the other entry of the earlier key: EML4 (Q9HC35, Echinoderm microtubule-associated protein-like 4)
T2 sequence (Q9UM73 with tags, fused parts or gaps): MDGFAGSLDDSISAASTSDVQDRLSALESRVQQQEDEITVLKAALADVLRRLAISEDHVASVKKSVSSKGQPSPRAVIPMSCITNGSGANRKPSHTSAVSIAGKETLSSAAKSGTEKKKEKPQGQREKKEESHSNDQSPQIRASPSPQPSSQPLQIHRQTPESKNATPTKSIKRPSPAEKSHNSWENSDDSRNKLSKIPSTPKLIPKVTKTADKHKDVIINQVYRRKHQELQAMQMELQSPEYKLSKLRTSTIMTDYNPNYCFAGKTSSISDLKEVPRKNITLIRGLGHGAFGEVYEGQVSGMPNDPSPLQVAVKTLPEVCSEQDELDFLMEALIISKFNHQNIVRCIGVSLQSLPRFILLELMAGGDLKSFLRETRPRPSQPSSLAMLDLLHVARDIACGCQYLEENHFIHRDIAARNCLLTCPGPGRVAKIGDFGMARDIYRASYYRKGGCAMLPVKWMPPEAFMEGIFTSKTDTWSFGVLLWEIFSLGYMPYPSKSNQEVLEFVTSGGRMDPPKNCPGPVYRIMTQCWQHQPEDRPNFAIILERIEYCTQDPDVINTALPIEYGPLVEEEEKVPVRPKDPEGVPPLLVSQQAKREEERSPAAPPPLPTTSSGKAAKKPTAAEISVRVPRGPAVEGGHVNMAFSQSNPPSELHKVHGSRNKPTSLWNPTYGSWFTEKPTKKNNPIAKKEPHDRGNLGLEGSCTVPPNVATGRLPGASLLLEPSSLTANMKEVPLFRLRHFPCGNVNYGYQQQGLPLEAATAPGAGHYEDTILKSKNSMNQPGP
The experiment in a line: EML4-ALK degradation in NCI-H2228 cells (immunoblot). It counts as cell-based. The procedure:
Human T-ALL MOLT4 (Cat. No. CRL-1582), K562 (Cat. No. CCL-243), NCI-H1299 (Cat. No. CRL-5803), NCI-H2228 (Cat. No. CRL-5935), LNCaP (Cat. No. CRL-1740), 22RV1 (Cat. No. CRL-2505), PC3 (Cat. No. CRL-1435), DU145 (Cat. No. HTB-81), and epithelial kidney HEK 293T (293T, Cat. No. ACS-4500) cell lines were recently purchased from American Type Culture Collection (ATCC, Manassas, VA, USA). MOLT4, K562, NCI—H-1299, NCI-H2228, LNCap, and 22RV 1 cell lines were cultured in RPMI 1640 medium (Cat No. 22400-089, Thermo Fisher Scientific, Waltham, MA, USA) supplemented with 10% (v/v) heat-inactivated fetal bovine serum (FBS, Cat. No. S11150H, Atlanta Biologicals, Flowery Branch, GA, USA), 100 U/mL penicillin and 100 pig/mL streptomycin (Pen-Strep, Cat. No. 15140122, Thermo Fisher Scientific). PC3 cells were cultured in complete F—12K medium (Kaighn's modification of Ham's F-12 medium, Cat. No. 30-2004, ATCC) supplemented with 10% (v/v) heat-inactivated FBS, 100 U/mL penicillin, and 100 μg/mL streptomycin. DU145 cells were cultured in complete Eagle's Minimum Essential Medium (EMEM, Cat. No. 30-2003, ATCC) supplemented with 10% (v/v) heat-inactivated FBS, 100 U/mL penicillin, and 100 μg/mL streptomycin. […]
Immunoblot data were quantified using the ImageJ (v 1.53a) software from NIH. […]

Series [3] deals with PL-binding proteins in MOLT4 cells. The experiment in a line: Competitive ABPP with PL-Alkyne probe and LC-MS/MS in MOLT4 cells. Further details: species or system Human. As for the experimental part:
Competitive ABPP. MOLT4 cells (2×10^7) were pre-treated with DMSO or 20 µM PL for 4 h and then treated with 1 μM PL-Alkyne probe (Zhang et al., 2018b) for an additional 4 h. The cells were then harvested and lysed in 1× Dulbecco's phosphate-buffered saline (PBS) buffer (Cat. #D1408, Sigma-Aldrich) containing protease and phosphatase inhibitors. CuAAC reaction was performed as previously described (Spradlin et al., 2019) and biotinylated proteins were enriched using Pierce™ streptavidin agarose beads (Cat. #20353, ThermoFisher).
Sample preparation and LC-MS/MS analysis. Protein samples were reduced, alkylated, and digested on-bead using filter-aided sample preparation (Wisniewski et al., 2009) with sequencing grade modified porcine trypsin (Cat. No. V5111, Promega). […]
The MS/MS was acquired according to standard conditions established in the lab. […] The scan sequence of the mass spectrometer was based on the original TopTen™ method; the analysis was programmed for a full scan recorded between 375-1575 Da at 60,000 resolution, and a MS/MS scan at resolution 15,000 to generate product ion spectra to determine amino acid sequence in consecutive instrument scans of the fifteen most abundant peaks in the spectrum. […]
Data processing and analysis. All MS/MS samples were analyzed using Sequest (Thermo Fisher Scientific, San Jose, CA, USA; version IseNode in Proteome Discoverer 2.4.0.305). […]

Series [4] has as its system proteins in senescent WI38 cells. As to conditions: cited from earlier work.

CDK9, sequence (P50750 whole entry): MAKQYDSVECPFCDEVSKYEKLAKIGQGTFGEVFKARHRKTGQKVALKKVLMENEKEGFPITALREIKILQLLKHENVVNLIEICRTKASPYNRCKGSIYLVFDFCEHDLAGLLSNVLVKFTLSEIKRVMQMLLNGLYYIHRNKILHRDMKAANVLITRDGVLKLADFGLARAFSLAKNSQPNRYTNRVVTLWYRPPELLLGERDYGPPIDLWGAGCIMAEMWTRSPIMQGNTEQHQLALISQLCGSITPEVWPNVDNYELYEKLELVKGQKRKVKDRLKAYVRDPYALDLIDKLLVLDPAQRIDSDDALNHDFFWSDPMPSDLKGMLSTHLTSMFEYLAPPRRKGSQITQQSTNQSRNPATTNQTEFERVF
T1 sequence (P50750 whole entry): as above
T1 sequence (Q14145 whole entry): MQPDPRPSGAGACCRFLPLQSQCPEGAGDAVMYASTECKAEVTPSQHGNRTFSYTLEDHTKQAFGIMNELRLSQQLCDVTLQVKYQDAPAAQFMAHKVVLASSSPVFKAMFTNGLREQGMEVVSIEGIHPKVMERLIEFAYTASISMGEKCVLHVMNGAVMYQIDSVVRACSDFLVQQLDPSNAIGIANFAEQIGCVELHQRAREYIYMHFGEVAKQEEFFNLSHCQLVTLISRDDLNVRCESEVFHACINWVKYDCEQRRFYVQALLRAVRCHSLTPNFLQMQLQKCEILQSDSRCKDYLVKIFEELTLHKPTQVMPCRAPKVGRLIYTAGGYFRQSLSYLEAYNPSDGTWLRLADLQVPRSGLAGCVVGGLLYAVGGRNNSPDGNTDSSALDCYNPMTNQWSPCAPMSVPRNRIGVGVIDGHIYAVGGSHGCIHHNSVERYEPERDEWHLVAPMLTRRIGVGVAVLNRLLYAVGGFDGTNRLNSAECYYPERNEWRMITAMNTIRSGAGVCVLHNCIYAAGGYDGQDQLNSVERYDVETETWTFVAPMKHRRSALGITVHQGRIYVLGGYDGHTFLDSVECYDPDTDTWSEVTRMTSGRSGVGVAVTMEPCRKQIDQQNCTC

For the molecule `COc1cc(CCC(=O)N2CCCCC2=O)cc(OC)c1OCCN1CCN(C(=O)CN2CCC(C(=O)Nc3ncc(SCc4ncc(C(C)(C)C)o4)s3)CC2)CC1` [compound 336, N-(5-(((5-(tert-butyl)oxazol-2-yl)methyl)thio)thiazol-2-yl)-1-(2-(4-(2-(2,6-dimethoxy-4-(3-oxo-3-(2-oxopiperidin-1-yl)propyl)phenoxy)ethyl)piperazin-1-yl)-2-oxoethyl)piperidine-4-carboxamide], the “formation of the CDK9:KEAP1 ternary complex” value in series [1] was “did not; also recorded: negligible”. The CDK9 degradation result at CDK9 was “could not induce CDK9 degradation; also recorded: but not 336, can induce CDK9 degradation; also recorded: cannot degrade CDK9”. In addition, the “effect of KEAP1 knockdown on cytotoxicity of the compound” value in series [2] was “no significant effect”.

On to `COc1cc(/C=C/C(=O)N2CCC=CC2=O)cc(OC)c1OCC(=O)N1CCC(c2cc(OC(C)C)c(Nc3ncc(Cl)c(Nc4ccccc4S(=O)(=O)C(C)C)n3)cc2C)CC1` [compound 819, (E)-1-(3-(4-(2-(4-(4-((5-chloro-4-((2-(isopropylsulfonyl)phenyl)amino)pyrimidin-2-yl)amino)-5-isopropoxy-2-methylphenyl)piperidin-1-yl)-2-oxoethoxy)-3,5-dimethoxyphenyl)acryloyl)-5,6-dihydropyridin-2(1H)-one], for which the “819-induced EML4-ALK degradation after pre-treatment with MG132, MLN4924 or DMF” value at EML4-ALK is “can be blocked”. Also, the EML4-ALK degradation result on EML4-ALK (immunoblot) is “concentration-dependent manner; also recorded: degrades EML4-ALK”.

As to `COc1cc(/C=C/C(=O)N2CCC=CC2=O)cc(OC)c1OC` [PL, Piperlongumine], the CDK9 degradation result at CDK9 is reported as “only 955, degraded CDK9; also recorded: none of these treatments degraded CDK9”. Besides, the “number of PL-binding E3 ligases” value in series [3] is listed as 9; in series [4] (senescent cells, previous study (Zhang et al., 2018b)), 8. Moreover, the “number of PL-binding proteins” value in series [3] is given as “about 300”; in series [4] (senescent WI38 fibroblasts, previous study) it was 172.
